Results from ChEMBL document CHEMBL1649096, “Study of kaempferol glycoside as an insulin mimic reveals glycon to be the key active structure” (2011).
Activity calls are given as the source filed them. The calls are words filed in the database; no cut-off is given here.

Columns and labels:
[1] = tested on: L6; experiment: Insulin mimetic activity in rat L6 cells assessed as stimulation of 2-deoxyglucose uptake at 0.1 nM by enzymatic method relative to untreated control; format: functional
[2] = tested on: L6; experiment: Insulin mimetic activity in rat L6 cells assessed as stimulation of 2-deoxyglucose uptake at 1 nM by enzymatic method relative to untreated control; format: functional
[3] = tested on: L6; experiment: Insulin mimetic activity in rat L6 cells assessed as stimulation of 2-deoxyglucose uptake at 1 mM by enzymatic method relative to untreated control; format: functional, cell-based

SMILES	Activity [1]	Activity [2]	Activity ([1]; filed as antagonist)	Activity [3]
C[C@@H]1O[C@@H](O[C@H]2C(O)O[C@H](CO)[C@@H](O)[C@@H]2O)[C@H](O)[C@H](O)[C@H]1O (some centres not stated) [NEOHESPERIDOSE]	200%	200%	–	–
O=c1c(O)c(-c2ccc(O)cc2)oc2cc(O)cc(O)c12	–	inactive	–	–
O=c1c(O[C@@H]2O[C@H](CO)[C@@H](O)[C@H](O)[C@H]2O)c(-c2ccc(O)cc2)oc2cc(O)cc(O)c12	–	inactive	Irreversible Antagonist	–
C[C@H]1O[C@H](O[C@H]2[C@H](Oc3c(-c4ccc(O)cc4)oc4cc(O)cc(O)c4c3=O)O[C@H](CO)[C@@H](O)[C@@H]2O)[C@@H](O)[C@@H](O)[C@@H]1O	–	200%	–	inactive
